Our source for the IC50 and DC50 values is patent publication US20260226086A1, “COMPOUNDS AND COMPOSITIONS AS STAT3 DEGRADERS AND USES THEREOF” (REGENTS OF THE UNIVERSITY OF MICHIGAN, priority 2023, published 2026).

Format in all cases: cell-based
One assay deals with SU-DHL-1 cells. Briefly: CellTiter-Glo 2.0 cell viability assay, SU-DHL-1. The following applies: Homo sapiens, 96 h, 4 days. An outline of the steps:
(§1)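 1000 cells per well exposed to serially diluted compounds for 4 days at 37 °C, 5% CO2. Viability measured by CellTiter-Glo 2.0 luminescence versus untreated cells; IC50 from four-parameter nonlinear fit of triplicate means.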
(In general: ATP-based viability assays read luminescence as a measure of living cells.)

A further assay relates to SUP-M2 cells. Briefly: CellTiter-Glo 2.0 cell viability assay, SUP-M2. The following applies: SUP-M2, 96 h, 4 days. An outline of the steps:
as §1

A further assay deals with T1, STAT3 (Homo sapiens, UniProt P40763).
T1 construct: This cell line is a clone created by using CRISPR-Cas9 to fuse HiBiT to the 3′ end of STAT3 in HeLa cells; host or cells: STAT3-HiBiT KI HeLa cell line (CRISPR-Cas9 knock-in clone)
In words: HiBiT assay, STAT3 degradation in STAT3-HiBiT KI HeLa cells. The settings on record: 24 h, read-out: STAT3 Degradation (HeLa 24 h HiBit) DC50. An outline of the steps:
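HeLa cells with CRISPR knock-in of HiBiT at the STAT3 C-terminus, 20000 cells/well, treated with serial compound dilutions for 24 h at 37 °C, 5% CO2. Remaining STAT3 read by Nano-Glo HiBiT lytic luminescence versus untreated cells; IC50 from four-parameter nonlinear fit of triplicate means.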

T1 sequence (P40763 whole entry): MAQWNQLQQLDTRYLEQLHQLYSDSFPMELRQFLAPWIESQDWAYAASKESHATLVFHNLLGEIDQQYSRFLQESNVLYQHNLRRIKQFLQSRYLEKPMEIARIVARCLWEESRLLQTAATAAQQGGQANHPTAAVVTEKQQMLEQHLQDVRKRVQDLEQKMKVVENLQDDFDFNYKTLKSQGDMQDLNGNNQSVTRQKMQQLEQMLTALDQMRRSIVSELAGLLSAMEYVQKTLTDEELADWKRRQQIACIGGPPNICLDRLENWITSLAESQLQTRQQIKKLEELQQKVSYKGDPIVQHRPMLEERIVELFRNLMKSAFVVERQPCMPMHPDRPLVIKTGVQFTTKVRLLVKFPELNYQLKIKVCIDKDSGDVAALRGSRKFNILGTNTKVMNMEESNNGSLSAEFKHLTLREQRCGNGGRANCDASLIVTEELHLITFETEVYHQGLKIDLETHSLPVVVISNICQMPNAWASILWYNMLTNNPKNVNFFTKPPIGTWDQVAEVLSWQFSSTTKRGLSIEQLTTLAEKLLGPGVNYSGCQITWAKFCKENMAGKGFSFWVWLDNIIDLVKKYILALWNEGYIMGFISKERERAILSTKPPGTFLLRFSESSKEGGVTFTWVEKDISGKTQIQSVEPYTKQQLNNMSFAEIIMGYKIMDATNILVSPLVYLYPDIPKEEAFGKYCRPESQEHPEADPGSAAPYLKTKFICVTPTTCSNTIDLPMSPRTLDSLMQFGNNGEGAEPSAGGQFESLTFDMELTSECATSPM

Consider `Cc1ncsc1-c1ccc([C@H](C)NC(=O)[C@@H]2C[C@@H](O)CN2C(=O)[C@@H](NC(=O)CCCC(=O)N2CC[C@H]3CC[C@@H](C(=O)N[C@@H](CCC(N)=O)C(=O)NC(c4ccccc4)c4ccccc4)N3C(=O)[C@@H](NC(=O)c3cc4cc(C(=O)P(=O)(O)O)ccc4[nH]3)C2)C(C)(C)C)cc1` [Compound 48, (2-(((5S,8S,10aR)-8-(((S)-5-amino-1-(benzhydrylamino)-1,5-dioxopentan-2-yl)carbamoyl)-3-(5-(((S)-1-((2S,4R)-4-hydroxy-2-(((S)-1-(4-(4-methylthiazol-5-yl)phenyl)ethyl)carbamoyl)pyrrolidin-1-yl)-3,3-dimethyl-1-oxobutan-2-yl)amino)-5-oxopentanoyl)-6-oxodecahydropyrrolo[1,2-a][1,5]diazocin-5-yl)carbamoyl)-1H-indole-5-carbonyl)phosphonic acid], for which the IC50 with SU-DHL-1 cells and in the assay with SUP-M2 cells was 10 to 100 nM throughout. For the same molecule, the DC50 at STAT3 was 10 to 100 nM.
On to `Cc1ncsc1-c1ccc([C@H](C)NC(=O)[C@@H]2C[C@@H](O)CN2C(=O)[C@@H](NC(=O)CCCCC(=O)N2CC[C@H]3CC[C@@H](C(=O)N[C@@H](CCC(N)=O)C(=O)NC(c4ccccc4)c4ccccc4)N3C(=O)[C@@H](NC(=O)c3cc4cc(C(=O)P(=O)(O)O)ccc4[nH]3)C2)C(C)(C)C)cc1` [Compound 49, (2-(((5S,8S,10aR)-8-(((S)-5-amino-1-(benzhydrylamino)-1,5-dioxopentan-2-yl)carbamoyl)-3-(6-(((S)-1-((2S,4R)-4-hydroxy-2-(((S)-1-(4-(4-methylthiazol-5-yl)phenyl)ethyl)carbamoyl)pyrrolidin-1-yl)-3,3-dimethyl-1-oxobutan-2-yl)amino)-6-oxohexanoyl)-6-oxodecahydropyrrolo[1,2-a][1,5]diazocin-5-yl)carbamoyl)-1H-indole-5-carbonyl)phosphonic acid], for which the IC50 in the assay on SU-DHL-1 cells and with SUP-M2 cells was 10 to 100 nM in each case. Moreover, on STAT3, the 50% degradation concentration (DC50) lay in the range of 10 to 100 nM.
For the molecule `Cc1ncsc1-c1ccc([C@H](C)NC(=O)[C@@H]2C[C@@H](O)CN2C(=O)[C@@H](NC(=O)CCCCCC(=O)N2CC[C@H]3CC[C@@H](C(=O)N[C@@H](CCC(N)=O)C(=O)NC(c4ccccc4)c4ccccc4)N3C(=O)[C@@H](NC(=O)c3cc4cc(C(=O)P(=O)(O)O)ccc4[nH]3)C2)C(C)(C)C)cc1` [Compound 50, (2-(((5S,8S,10aR)-8-(((S)-5-amino-1-(benzhydrylamino)-1,5-dioxopentan-2-yl)carbamoyl)-3-(7-(((S)-1-((2S,4R)-4-hydroxy-2-(((S)-1-(4-(4-methylthiazol-5-yl)phenyl)ethyl)carbamoyl)pyrrolidin-1-yl)-3,3-dimethyl-1-oxobutan-2-yl)amino)-7-oxoheptanoyl)-6-oxodecahydropyrrolo[1,2-a][1,5]diazocin-5-yl)carbamoyl)-1H-indole-5-carbonyl)phosphonic acid], the 50% inhibitory concentration (IC50) with SU-DHL-1 cells and with SUP-M2 cells was 10 to 100 nM throughout. For the same molecule, the DC50 on STAT3 lay in the range of 100 to 1000 nM.
On to `Cc1ncsc1-c1ccc([C@H](C)NC(=O)[C@@H]2C[C@@H](O)CN2C(=O)[C@@H](NC(=O)CCCCCCC(=O)N2CC[C@H]3CC[C@@H](C(=O)N[C@@H](CCC(N)=O)C(=O)NC(c4ccccc4)c4ccccc4)N3C(=O)[C@@H](NC(=O)c3cc4cc(C(=O)P(=O)(O)O)ccc4[nH]3)C2)C(C)(C)C)cc1` [Compound 51, (2-(((5S,8S,10aR)-8-(((S)-5-amino-1-(benzhydrylamino)-1,5-dioxopentan-2-yl)carbamoyl)-3-(8-(((S)-1-((2S,4R)-4-hydroxy-2-(((S)-1-(4-(4-methylthiazol-5-yl)phenyl)ethyl)carbamoyl)pyrrolidin-1-yl)-3,3-dimethyl-1-oxobutan-2-yl)amino)-8-oxooctanoyl)-6-oxodecahydropyrrolo[1,2-a][1,5]diazocin-5-yl)carbamoyl)-1H-indole-5-carbonyl)phosphonic acid], for which the half-maximal inhibitory concentration (IC50) in the assay on SU-DHL-1 cells and in the assay on SUP-M2 cells was 100 to 1000 nM in each case. In addition, the half-maximal degradation concentration (DC50) on STAT3 was in the range of 100 to 1000 nM.
For the molecule `Cc1ncsc1-c1ccc([C@H](C)NC(=O)[C@@H]2C[C@@H](O)CN2C(=O)[C@@H](NC(=O)CCCCCCCC(=O)N2CC[C@H]3CC[C@@H](C(=O)N[C@@H](CCC(N)=O)C(=O)NC(c4ccccc4)c4ccccc4)N3C(=O)[C@@H](NC(=O)c3cc4cc(C(=O)P(=O)(O)O)ccc4[nH]3)C2)C(C)(C)C)cc1` [Compound 52, (2-(((5S,8S,10aR)-8-(((S)-5-amino-1-(benzhydrylamino)-1,5-dioxopentan-2-yl)carbamoyl)-3-(9-(((S)-1-((2S,4R)-4-hydroxy-2-(((S)-1-(4-(4-methylthiazol-5-yl)phenyl)ethyl)carbamoyl)pyrrolidin-1-yl)-3,3-dimethyl-1-oxobutan-2-yl)amino)-9-oxononanoyl)-6-oxodecahydropyrrolo[1,2-a][1,5]diazocin-5-yl)carbamoyl)-1H-indole-5-carbonyl)phosphonic acid], the IC50 in the assay on SU-DHL-1 cells and in the assay on SUP-M2 cells was 100 to 1000 nM each time. On STAT3, the DC50 fell in the range of 100 to 1000 nM.
In the case of `Cc1ncsc1-c1ccc([C@H](C)NC(=O)[C@@H]2C[C@@H](O)CN2C(=O)[C@@H](NC(=O)CCCCCCCCC(=O)N2CC[C@H]3CC[C@@H](C(=O)N[C@@H](CCC(N)=O)C(=O)NC(c4ccccc4)c4ccccc4)N3C(=O)[C@@H](NC(=O)c3cc4cc(C(=O)P(=O)(O)O)ccc4[nH]3)C2)C(C)(C)C)cc1` [Compound 53, (2-(((5S,8S,10aR)-8-(((S)-5-amino-1-(benzhydrylamino)-1,5-dioxopentan-2-yl)carbamoyl)-3-(10-(((S)-1-((2S,4R)-4-hydroxy-2-(((S)-1-(4-(4-methylthiazol-5-yl)phenyl)ethyl)carbamoyl)pyrrolidin-1-yl)-3,3-dimethyl-1-oxobutan-2-yl)amino)-10-oxodecanoyl)-6-oxodecahydropyrrolo[1,2-a][1,5]diazocin-5-yl)carbamoyl)-1H-indole-5-carbonyl)phosphonic acid], the IC50 in the assay on SU-DHL-1 cells and in the assay on SUP-M2 cells was 100 to 1000 nM throughout. In addition, the DC50 on STAT3 was in the range of 100 to 1000 nM.
Regarding `Cc1ncsc1-c1ccc([C@H](C)NC(=O)[C@@H]2C[C@@H](O)CN2C(=O)[C@@H](n2cc(CC(=O)N3CC[C@H]4CC[C@@H](C(=O)N[C@@H](CCC(N)=O)C(=O)NC(c5ccccc5)c5ccccc5)N4C(=O)[C@@H](NC(=O)c4cc5cc(C(=O)P(=O)(O)O)ccc5[nH]4)C3)nn2)C(C)(C)C)cc1` [Compound 54, (2-(((5S,8S,10aR)-8-(((S)-5-amino-1-(benzhydrylamino)-1,5-dioxopentan-2-yl)carbamoyl)-3-(2-(1-((S)-1-((2S,4R)-4-hydroxy-2-(((S)-1-(4-(4-methylthiazol-5-yl)phenyl)ethyl)carbamoyl)pyrrolidin-1-yl)-3,3-dimethyl-1-oxobutan-2-yl)-1H-1,2,3-triazol-4-yl)acetyl)-6-oxodecahydropyrrolo[1,2-a][1,5]diazocin-5-yl)carbamoyl)-1H-indole-5-carbonyl)phosphonic acid], the IC50 with SU-DHL-1 cells and with SUP-M2 cells was > 1000 nM throughout. Moreover, on STAT3, the half-maximal degradation concentration (DC50) is > 1000 nM.
Regarding `Cc1ncsc1-c1ccc([C@H](C)NC(=O)[C@@H]2C[C@@H](O)CN2C(=O)[C@@H](n2cc(CCC(=O)N3CC[C@H]4CC[C@@H](C(=O)N[C@@H](CCC(N)=O)C(=O)NC(c5ccccc5)c5ccccc5)N4C(=O)[C@@H](NC(=O)c4cc5cc(C(=O)P(=O)(O)O)ccc5[nH]4)C3)nn2)C(C)(C)C)cc1` [Compound 55, (2-(((5S,8S,10aR)-8-(((S)-5-amino-1-(benzhydrylamino)-1,5-dioxopentan-2-yl)carbamoyl)-3-(3-(1-((S)-1-((2S,4R)-4-hydroxy-2-(((S)-1-(4-(4-methylthiazol-5-yl)phenyl)ethyl)carbamoyl)pyrrolidin-1-yl)-3,3-dimethyl-1-oxobutan-2-yl)-1H-1,2,3-triazol-4-yl)propanoyl)-6-oxodecahydropyrrolo[1,2-a][1,5]diazocin-5-yl)carbamoyl)-1H-indole-5-carbonyl)phosphonic acid], the IC50 in the assay on SU-DHL-1 cells and with SUP-M2 cells was > 1000 nM each time. At STAT3, the DC50 was > 1000 nM.
`Cc1ncsc1-c1ccc([C@H](C)NC(=O)[C@@H]2C[C@@H](O)CN2C(=O)[C@@H](n2cc(CCCC(=O)N3CC[C@H]4CC[C@@H](C(=O)N[C@@H](CCC(N)=O)C(=O)NC(c5ccccc5)c5ccccc5)N4C(=O)[C@@H](NC(=O)c4cc5cc(C(=O)P(=O)(O)O)ccc5[nH]4)C3)nn2)C(C)(C)C)cc1` [Compound 56, (2-(((5S,8S,10aR)-8-(((S)-5-amino-1-(benzhydrylamino)-1,5-dioxopentan-2-yl)carbamoyl)-3-(4-(1-((S)-1-((2S,4R)-4-hydroxy-2-(((S)-1-(4-(4-methylthiazol-5-yl)phenyl)ethyl)carbamoyl)pyrrolidin-1-yl)-3,3-dimethyl-1-oxobutan-2-yl)-1H-1,2,3-triazol-4-yl)butanoyl)-6-oxodecahydropyrrolo[1,2-a][1,5]diazocin-5-yl)carbamoyl)-1H-indole-5-carbonyl)phosphonic acid]: the IC50 in the assay with SU-DHL-1 cells and with SUP-M2 cells was 100 to 1000 nM in each case. Further, the DC50 on STAT3 was > 1000 nM.

The IC50 is the concentration needed to halve the response being measured. A low value points to greater potency in that assay. By DC50 is commonly meant the midpoint of the concentration-degradation curve.
